Results reported in patent US12077503B2, “Substituted cyclic amides and their use as herbicides” (FMC CORPORATION, priority 2015, dated 2024).

Tests used:
Assay type in all cases: in vivo
[1] = system: ryegrass, Italian (Italian ryegrass, Lolium multiflorum); assay: Test A preemergence; settings: Lolium multiflorum, pre-emergence, 240 h, 0 to 100 scale where 0 is no effect and 100 is complete control, read-out: Ryegrass, Italian plant response rating; for pest or weed control at 31 g/ha: 31 g ai/ha, Preemergence; for pest or weed control at 125 g/ha: 125 g ai/ha, preemergence, visual injury rating, approximately 10 d
How it was run: (§1)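 Seeded soil received test chemicals as a preemergence directed spray, and seedlings at one to two leaves, 2–10 cm tall, received them postemergence, in a non-phytotoxic, surfactant-containing solvent mixture. Pots were held in a greenhouse for approximately 10 d, then rated for injury from 0, no effect, to 100, complete control.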

[2] = system: barnyardgrass (Echinochloa crus-galli); assay: Test A preemergence; settings: Echinochloa crus-galli, pre-emergence, 240 h, 0 to 100 scale where 0 is no effect and 100 is complete control, read-out: Barnyardgrass plant response rating; for pest or weed control at 31 g/ha: 31 g ai/ha, Preemergence; for pest or weed control at 125 g/ha: 125 g ai/ha, preemergence, visual injury rating, approximately 10 d
How it was run: as §1

[3] = system: pigweed (Amaranthus retroflexus); assay: Test A preemergence; settings: Amaranthus retroflexus, pre-emergence, 240 h, 0 to 100 scale where 0 is no effect and 100 is complete control, read-out: Pigweed plant response rating; for pest or weed control at 31 g/ha: 31 g ai/ha, Preemergence; for pest or weed control at 125 g/ha: 125 g ai/ha, preemergence, visual injury rating, approximately 10 d
[4] = system: Kochia (Kochia scoparia); assay: Test A preemergence; settings: Bassia scoparia, pre-emergence, 240 h, 0 to 100 scale where 0 is no effect and 100 is complete control, read-out: Kochia plant response rating; for pest or weed control at 31 g/ha: 31 g ai/ha, Preemergence; for pest or weed control at 125 g/ha: 125 g ai/ha, preemergence, visual injury rating, approximately 10 d
How it was run: as §1

[5] = system: giant foxtail (Setaria faberii); assay: Test A preemergence; settings: Setaria faberi, pre-emergence, 240 h, 0 to 100 scale where 0 is no effect and 100 is complete control, read-out: Foxtail, Giant plant response rating; for pest or weed control at 31 g/ha: 31 g ai/ha, Preemergence; for pest or weed control at 125 g/ha: 125 g ai/ha, preemergence, visual injury rating, approximately 10 d
How it was run: as §1

[6] = system: ragweed (common ragweed, Ambrosia elatior); assay: Test A preemergence; settings: Ambrosia artemisiifolia, pre-emergence, 240 h, 0 to 100 scale where 0 is no effect and 100 is complete control, read-out: Ragweed plant response rating; for pest or weed control at 31 g/ha: 31 g ai/ha, Preemergence; for pest or weed control at 125 g/ha: 125 g ai/ha, preemergence, visual injury rating, approximately 10 d
How it was run: as §1

[7] = system: barnyardgrass (Echinochloa crus-galli); assay: Test B flooded paddy test; settings: Echinochloa crus-galli, 250 g ai/ha, Flood; 0 to 100 scale where 0 is no effect and 100 is complete control; read-out: Barnyardgrass plant response rating
How it was run: (§2)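 Evaluation by eye, against controls, occurred 13–15 d post-treatment in a greenhouse, using a 0 (no effect) to 100 (complete control) scale. Application was into the paddy water, 3 cm deep over the soil, on 2-leaf plants.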

[8] = system: ducksalad (Heteranthera limosa); assay: Test B flooded paddy test; settings: Heteranthera limosa, 250 g ai/ha, Flood; 0 to 100 scale where 0 is no effect and 100 is complete control; read-out: Ducksalad plant response rating
How it was run: as §2

[9] = system: rice (Oryra sativa); assay: Test B flooded paddy test; settings: Oryza sativa, 250 g ai/ha, Flood; 0 to 100 scale where 0 is no effect and 100 is complete control; read-out: Rice plant response rating
How it was run: as §2

[10] = system: sedge, umbrella (small-flower umbrella sedge, Cyperus difformis); assay: Test B flooded paddy test; settings: Cyperus difformis, 250 g ai/ha, Flood; 0 to 100 scale where 0 is no effect and 100 is complete control; read-out: Sedge, Umbrella plant response rating
How it was run: as §2

[11] = system: ryegrass, Italian (Italian ryegrass, Lolium multiflorum); assay: Test A postemergence; settings: Lolium multiflorum, post-emergence, 240 h, read-out: Ryegrass, Italian plant response rating (0 to 100 scale); for pest or weed control at 125 g/ha: 125 g ai/ha, postemergence, visual injury vs untreated controls after approx. 10 d, 0 = no effect, 100 = complete control; for pest or weed control at 31 g/ha: Postemergence, 31 g ai/ha, 0 is no effect, 100 is complete control
How it was run: as §1

[12] = system: barnyardgrass (Echinochloa crus-galli); assay: Test A postemergence; settings: Echinochloa crus-galli, post-emergence, 240 h, read-out: Barnyardgrass plant response rating (0 to 100 scale); for pest or weed control at 125 g/ha: 125 g ai/ha, postemergence, visual injury vs untreated controls after approx. 10 d, 0 = no effect, 100 = complete control; for pest or weed control at 31 g/ha: Postemergence, 31 g ai/ha, 0 is no effect, 100 is complete control
How it was run: as §1

[13] = system: pigweed (Amaranthus retroflexus); assay: Test A postemergence; settings: Amaranthus retroflexus, post-emergence, 240 h, read-out: Pigweed plant response rating (0 to 100 scale); for pest or weed control at 125 g/ha: 125 g ai/ha, postemergence, visual injury vs untreated controls after approx. 10 d, 0 = no effect, 100 = complete control; for pest or weed control at 31 g/ha: Postemergence, 31 g ai/ha, 0 is no effect, 100 is complete control
How it was run: as §1

[14] = system: Kochia (Kochia scoparia); assay: Test A postemergence; settings: Bassia scoparia, post-emergence, 240 h, read-out: Kochia plant response rating (0 to 100 scale); for pest or weed control at 125 g/ha: 125 g ai/ha, postemergence, visual injury vs untreated controls after approx. 10 d, 0 = no effect, 100 = complete control; for pest or weed control at 31 g/ha: Postemergence, 31 g ai/ha, 0 is no effect, 100 is complete control
How it was run: as §1

[15] = system: giant foxtail (Setaria faberii); assay: Test A postemergence; settings: Setaria faberi, post-emergence, 240 h, read-out: Foxtail, Giant plant response rating (0 to 100 scale); for pest or weed control at 125 g/ha: 125 g ai/ha, postemergence, visual injury vs untreated controls after approx. 10 d, 0 = no effect, 100 = complete control; for pest or weed control at 31 g/ha: Postemergence, 31 g ai/ha, 0 is no effect, 100 is complete control
How it was run: as §1

[16] = system: corn (Zea mays); assay: Test A postemergence; settings: Zea mays, post-emergence, 240 h, read-out: Corn plant response rating (0 to 100 scale); for plant injury at 125 g/ha: 125 g ai/ha, postemergence, visual injury vs untreated controls after approx. 10 d, 0 = no effect, 100 = complete control; for plant injury at 31 g/ha: Postemergence, 31 g ai/ha, 0 is no effect, 100 is complete control
How it was run: as §1

[17] = system: wheat (Triticum aestivum); assay: Test A postemergence; settings: Triticum aestivum, post-emergence, 240 h, read-out: Wheat plant response rating (0 to 100 scale); for plant injury at 31 g/ha: Postemergence, 31 g ai/ha, 0 is no effect, 100 is complete control
How it was run: as §1

[18] = system: blackgrass (Alopecurus myosuroides); assay: Test A postemergence; settings: Alopecurus myosuroides, post-emergence, 240 h, read-out: Blackgrass plant response rating (0 to 100 scale); for pest or weed control at 125 g/ha: 125 g ai/ha, postemergence, visual injury vs untreated controls after approx. 10 d, 0 = no effect, 100 = complete control; for pest or weed control at 31 g/ha: Postemergence, 31 g ai/ha, 0 is no effect, 100 is complete control
How it was run: as §1

[19] = system: Galium (catchweed bedstraw, Galium aparine); assay: Test A postemergence; settings: Galium, post-emergence, 240 h, read-out: Galium plant response rating (0 to 100 scale); for pest or weed control at 125 g/ha: 125 g ai/ha, postemergence, visual injury vs untreated controls after approx. 10 d, 0 = no effect, 100 = complete control; for pest or weed control at 31 g/ha: Postemergence, 31 g ai/ha, 0 is no effect, 100 is complete control
How it was run: as §1

[20] = system: ragweed (common ragweed, Ambrosia elatior); assay: Test A postemergence; settings: Ambrosia artemisiifolia, post-emergence, 240 h, read-out: Ragweed plant response rating (0 to 100 scale); for pest or weed control at 125 g/ha: 125 g ai/ha, postemergence, visual injury vs untreated controls after approx. 10 d, 0 = no effect, 100 = complete control; for pest or weed control at 31 g/ha: Postemergence, 31 g ai/ha, 0 is no effect, 100 is complete control
How it was run: as §1

N#Cc1ccc([C@H]2CNC(=O)[C@@H]2C(=O)Nc2cccc(F)c2F)cc1F [Compound 1193]
80%: pest or weed control at 125 g/ha [5]
70%: pest or weed control at 125 g/ha [12]
75%: pest or weed control at 250 g/ha [7]
40%: pest or weed control at 31 g/ha [2]
0%: pest or weed control at 31 g/ha [1] | pest or weed control at 125 g/ha [1] | pest or weed control at 31 g/ha [3] | pest or weed control at 125 g/ha [3] | pest or weed control at 31 g/ha [4] | pest or weed control at 125 g/ha [4] | pest or weed control at 31 g/ha [5] | pest or weed control at 31 g/ha [6] | pest or weed control at 125 g/ha [6] | pest or weed control at 250 g/ha [10] | pest or weed control at 125 g/ha [11] | pest or weed control at 31 g/ha [11] | pest or weed control at 31 g/ha [12] | pest or weed control at 125 g/ha [13] | pest or weed control at 31 g/ha [13] | pest or weed control at 125 g/ha [14] | pest or weed control at 31 g/ha [14] | pest or weed control at 31 g/ha [15] | plant injury at 125 g/ha [16] | plant injury at 31 g/ha [16] | plant injury at 125 g/ha ([17]; 125 g ai/ha, postemergence, visual injury vs untreated controls after approx. 10 d, 0 = no effect, 100 = complete control) | plant injury at 31 g/ha [17] | pest or weed control at 125 g/ha [18] | pest or weed control at 31 g/ha [18] | pest or weed control at 125 g/ha [19] | pest or weed control at 31 g/ha [19] | pest or weed control at 125 g/ha [20] | pest or weed control at 31 g/ha [20]
90%: pest or weed control at 125 g/ha [2] | pest or weed control at 250 g/ha [8]
30%: pest or weed control at 250 g/ha [9] | pest or weed control at 125 g/ha [15]

O=C1NC[C@H](c2ccc(F)c(Oc3ccccc3)c2)[C@H]1C(=O)Nc1cccc(F)c1F [Compound 1258]
60%: pest or weed control at 125 g/ha [15]
30%: pest or weed control at 125 g/ha [2] | pest or weed control at 31 g/ha [12] | pest or weed control at 125 g/ha [13] | pest or weed control at 31 g/ha [15]
70%: pest or weed control at 125 g/ha [5] | pest or weed control at 125 g/ha [12] | pest or weed control at 31 g/ha [19]
0%: pest or weed control at 31 g/ha [1] | pest or weed control at 125 g/ha [1] | pest or weed control at 31 g/ha [2] | pest or weed control at 31 g/ha [3] | pest or weed control at 125 g/ha [3] | pest or weed control at 31 g/ha [4] | pest or weed control at 125 g/ha [4] | pest or weed control at 31 g/ha [6] | pest or weed control at 125 g/ha [6] | pest or weed control at 250 g/ha [8] | pest or weed control at 250 g/ha [9] | pest or weed control at 250 g/ha [10] | pest or weed control at 125 g/ha [11] | pest or weed control at 31 g/ha [11] | pest or weed control at 31 g/ha [13] | pest or weed control at 125 g/ha [14] | pest or weed control at 31 g/ha [14] | plant injury at 31 g/ha [16] | plant injury at 31 g/ha [17] | pest or weed control at 125 g/ha [18] | pest or weed control at 31 g/ha [18] | pest or weed control at 125 g/ha [20] | pest or weed control at 31 g/ha [20]
40%: pest or weed control at 31 g/ha [5] | pest or weed control at 250 g/ha [7] | plant injury at 125 g/ha [16]
80%: pest or weed control at 125 g/ha [19]
